System: T1, QsGH97a
T1 construct: pSMT3 His-SUMO fusion in E. coli BL21(DE3), tag cut by Ulp1; probable dimer; forward primer encodes MIRHIALFI; catalytic Glu378, Glu459, Glu483
Experiment: p-nitrophenol release at […] nm, Michaelis-Menten fit
Format: biochemical, Qipengyuania seohaensis
Settings: 20 mM Tris-HCl pH 8.0, 50 °C, no added metal ion

Km: 200 ± 20 µM
Structure (SMILES): O=[N+]([O-])c1ccc(O[C@H]2O[C@H](CO)[C@@H](O)[C@H](O)[C@H]2O)cc1 [pNPαGlu, p-Nitrophenyl-α-D-glucopyranoside]

Reference: publication PMC10086023, “The effect of barium and strontium on activity of glucoamylase QsGH97a from Qipengyuania seohaensis SW-135” (Scientific Reports, 2023)
